The numbers were not newly measured in patent publication US11191734B2, “Ketamine transdermal delivery system” (SHENOX PHARMACEUTICALS, LLC, priority 2015, dated 2021), which cites them from elsewhere.

A word on the clearance: it is a measure of how efficiently the substance is removed, as volume per time.

The conditions of series [1]: in vivo.
Assay in series [2]: not given
This is another data set of the same source.

Another series deals with NMDA receptor. The note with it: in vitro.
[3] abbreviates: three-compartment model, 70-kg human.

Consider `CNC1(c2ccccc2Cl)CCCCC1=O` (racemic) [ketamine], for which the “onset of antidepressant effect after administration” value in series [1] was at most 2 h. The absolute oral bioavailability (in humans) was 10-20%. Further, for the setting “in vivo”, the half-life entry is on record as “about 2 hours” and the “systemic (primarily hepatic) clearance” value is “about 19 ml/min·kg”. For the same compound, under setting [3], the V1 is 133 L, the clearance is 79.8 L/h, the “micro constant k12” value is 0.174 h⁻¹ and the “micro constant k13” value is 1.18 h⁻¹. In addition, under setting [3], the “micro constant k21” value was 0.124 h⁻¹ and the “micro constant k31” value was 1.59 h⁻¹.
Take `CN[C@@]1(c2ccccc2Cl)CCCCC1=O` [R-ketamine]: in series [2] (animal model studies), the antidepressant effectiveness result is “more effective as an antidepressant than S-ketamine”. For the same compound, the “psychotomimetic side effects and abuse liability” value in series [2] (in vivo) was “free of psychotomimetic side effects and abuse liability”.
For `CN[C@]1(c2ccccc2Cl)CCCCC1=O` [S-ketamine], in the series with NMDA receptor, the “affinity on NMDA receptor binding relative to R-ketamine” value is on record as around 4 fold.
